According to patent publication US7351695B2, “Topiramate salts and compositions comprising and methods of making and using the same” (Ortho-McNeil Pharmaceuticals, Inc., priority 2002, dated 2008):
Values joined by “and” are separate entries in the source; they are usually repeats but may differ in a detail not shown here. Identical values can stand only once. Like-named read-outs stand apart in the source and are kept apart here.

How the values were obtained:
[1] = Chemical stability by HPLC analysis of stored samples; format: physicochemical
[2] = Physical stability by TGA and PXRD at preset temperature and relative humidity; format: physicochemical; settings: for Physical stability result (solid form): 2 weeks
Method: A further study on physical stability of a sample from this example was conducted in glass vials at preset temperatures and controlled relative humidities. The humidities stored at room temperature were controlled using saturated salt solutions (see H. Nyquist, Pharm. Tech. 4(2):47-48 (1983)). At other temperatures, the oven configurations allowed humidity control. After 2 weeks, samples at various conditions were tested by TGA and PXRD to assess whether the crystalline topiramate sodium trihydrate remained intact or not. The data in Table 3 summarize findings after 2 weeks of incubation.

[3] = Estimation of solubility: minimum solvent needed to dissolve a known amount; format: physicochemical; settings: for Solubility (amount of solid in mL of solvent): sodium trihydrate
Method: The solubility of the topiramate sodium trihydrate prepared in this example in water, ethanol, methanol, and THF was estimated by determining the minimum amount of solvent necessary to dissolve a known amount of the compound. In general, a predetermined amount of the compound was placed in a small glass vial, and then solvent was added drop-wise at room temperature until no visible solid remained in the vial.

[4] = pH of an aqueous solution (pH meter); format: physicochemical; settings: 400 mg/mL solution in distilled water
[5] = Dissolution curves in 0.01 N HCl; format: physicochemical; settings: for state at the end of the dissolution experiment: nominal about 110 mM (37 mg/mL free acid concentration)
From the text: FIG. 6 provides results of a comparison between the aqueous solubility of topiramate sodium trihydrate with that of topiramate. […] Independently, a set of dissolution curves were obtained in 0.01 N HCl (representative of a modestly acidic stomach), and these are shown in FIG. 7.

[6] = Oral pharmacokinetics in rats, capsules by gavage, plasma by LC/MS/MS; format: in vivo, male Sprague-Dawley rats; settings: rat
[7] = in vivo; cited from earlier work
[8] = cited from earlier work
[9] = system: kindled seizures; settings: rats; cited from earlier work
[10] = nominal concentration about 110 mM

CC1(C)O[C@@H]2[C@@H](CO[C@@]3(COS(N)(=O)=O)OC(C)(C)O[C@@H]23)O1 [topiramate sodium trihydrate]
chemical degradation by HPLC ([1]; 2 weeks at 25° C./<5% RH, 25° C./31% RH, 25° C./75% RH, 40° C./ambient RH, or 40° C./75% RH): No chemical degradation | chemical degradation by HPLC ([1]; >12 weeks at 25° C./<5% RH, 25° C./31% RH, 25° C./75% RH, or 40° C./75% RH): No chemical degradation | chemical degradation by HPLC ([1]; stored at or above 60° C. for at least 2 weeks): Degradates were observed | Physical stability result (solid form) ([2]; 5 °C, ambient RH (refrigerated)): Trihydrate | Physical stability result (solid form) ([2]; 25 °C, 31% RH): Trihydrate | Physical stability result (solid form) ([2]; 25 °C, 75% RH): Trihydrate | Physical stability result (solid form) ([2]; 25 °C, <5% RH): Trihydrate & some amorphous | Physical stability result (solid form) ([2]; 40 °C, 75% RH): Trihydrate | Physical stability result (solid form) ([2]; 40 °C, ambient RH (<20)): Trihydrate | Physical stability result (solid form) ([2]; 60 °C, ambient RH (<10)): Amorphous | Physical stability result (solid form) ([2]; 80 °C, ambient RH (<5)): Amorphous | temperature up to which the hydrate stays intact ([2]; by TGA): ≤ 40 °C | solubility ([3]; THF, room temperature (slight overestimate), read-out: Solubility (amount of solid in mL of solvent)): 44.2 mg/mL | solubility ([3]; ethanol, room temperature, read-out: Solubility (amount of solid in mL of solvent)): 376 mg/mL | solubility ([3]; methanol, room temperature, single trials, read-out: Solubility (amount of solid in mL of solvent)): 1280 mg/mL | Solubility (amount of solid in mL of solvent) ([3]; methanol, room temperature, single trials): 1600 mg/mL and 1530 mg/mL | solubility ([3]; methanol, room temperature, read-out: Average Solubility): 1470 mg/mL | aqueous solubility relative to topiramate ([3]; vs. literature value of […]): over 100 times | solubility ([3]; water, FIG. 6, read-out: aqueous solubility): 1300 mg/mL | solubility ([3]; water, room temperature, single trials, read-out: Solubility (amount of solid in mL of solvent)): 1240 mg/mL | Solubility (amount of solid in mL of solvent) ([3]; water, room temperature, single trials): 1435 mg/mL | solubility ([3]; water, room temperature, read-out: Average Solubility): 1330 mg/mL | pH of solution [4]: about 11.2 | solubility at the equilibrium condition relative to (1) and (3) [5]: increased solubility | state at the end of the dissolution experiment ([5]; listed as topiramate sodium salt trihydrate, sodium trihydrate): not saturated | pH at the equilibrium condition [5, 10]: 9.5 | Tmax ([6]; male, Sprague-Dawley, plasma, oral capsule, 30 mg/kg free topiramate equivalent, first time point, read-out: time of peak plasma concentration (tmax)): 30 min | plasma profile, comparison in words ([6]; oral, 30 mg/kg, FIG. 10): comparable to an oral solution of TOPAMAX®

CC1(C)O[C@@H]2[C@@H](CO[C@@]3(COS(N)(=O)=O)OC(C)(C)O[C@@H]23)O1 [topiramate, 2,3:4,5-Di-O-isopropylidene-β-D-fructopyranose sulfamate]
time to reach peak plasma levels [7]: about two | solubility in acetone, chloroform, dimethylsulfoxide, and ethanol [8]: freely soluble | state at the end of the dissolution experiment ([5]; listed as topiramate crystal form): remained as suspensions | time at which dissolution was essentially complete [5, 10]: 5 min | blocking kindled seizures [9]: effective in blocking kindled seizures
